Measurements published in US12473303B2, “4-[[(7-aminopyrazolo[1,5-a]pyrimidin-5-yl)amino methyl]piperidin-3-ol compounds and their therapeutic use” (CARRICK THERAPEUTICS LIMITED, priority 2019, dated 2025).
Read-outs that look alike come from different tables or passages of the source.

What was measured:
Human CDK7/CycH/MAT1 = Human CDK7/CycH/MAT1 (Homo sapiens (Human), UniProt P50613); test: Radiometric protein kinase assay (33PanQinase Activity Assay), CDK7; type: biochemical; settings: Table 1; ATP 3 μM
Experimental: (§1) A radiometric protein kinase assay (^33PanQinase® Activity Assay) was used for measuring the kinase activity of the two protein kinases (CDK12/CDK7). All kinase assays were performed in 96-well FlashPlates™ from PerkinElmer (Boston, MA, USA) in a 50 μL reaction volume.
(§2) The reaction cocktail was pipetted in four steps in the following order: • 20 μL of assay buffer (standard buffer) • 5 μL of ATP solution (in H2O) • 5 μL of test compound (in 10% DMSO) • 10 μL of substrate/10 μL of enzyme solution (premixed)
(§3) The reaction mixture was incubated at 30° C. for 60 min and then stopped by the addition of 2% (v/v) H3PO4. Plates were aspirated and washed two times with 200 μL 0.9% (w/v) NaCl. Incorporation of ^33Pi was determined with a microplate scintillation count (Microbeta, Wallac).
(§4) The fitting method used was a least-squares fit.

A673 cells = test: Cellular potency in A673 cells; type: cell-based; settings: for IC50: Homo sapiens, A673 cells
Cyclin K [1] = test: Western blotting analysis of Cyclin K depletion in cell culture; type: cell-based; settings: Table 2; A673 cells, 1 μM compound, 2 hours
Experimental: Western Blotting Analysis of Cyclin K Depletion in Cell Culture A673 cells were incubated for 2 hours with of 1 μM compound in presence or in absence of 10 μM proteasome inhibitor MG132 (Sigma Aldrich) or NAE (NEDD8 activating enzyme) inhibitor […] (Cell Signalling Technologies). Cells were washed 2× with cold Phosphate Buffered Saline (PBS, Sigma Aldrich), followed by the addition of lysis buffer for 15 minutes on ice before harvesting and centrifugation.
Protein content in the cell lysate was assessed by BCA assay (Thermo Fisher). Samples were then prepared with 4× Laemmlli Buffer (Bio-Rad) and heated to 95° C. for 5 minutes. Each sample was loaded onto a Mini-PROTEAN TGX Stain Free Gel (Bio-Rad) at 50 μg protein/well. SDS-PAGE was performed and then protein was transferred onto a PVDF membrane using a Trans-Blot® Turbo™ Midi PVDF Transfer Pack (Bio-Rad. Membranes were blocked in TBS-T (Invitrogen), 5% (w/v) milk powder (Marvel) overnight at 4° C.
Membranes were incubated with anti-CCNK antibody (rabbit) primary antibody (Abcam) and anti-GAPDH antibody (rabbit) in TBS-T for 2 hours. Membranes were then washed three times with TBS-T, before incubation secondary goat anti-rabbit HRP antibody (Cell Signalling Technologies) followed by 3× washing in TBS-T. Blots were imaged using a Chemidoc imager (Bio-Rad). Cyclin K depletion was measured as the observable drop in band intensity in compound treated samples relative to proteasome-inhibitor treated samples, measured by densitometry (Image Lab).

Human CDK12 wt/CycK = Human CDK12 wt/CycK (Homo sapiens (Human), UniProt Q9NYV4); test: Radiometric protein kinase assay (33PanQinase Activity Assay), CDK12; type: biochemical; settings: for CDK7/CDK12: ratio greater than 1 indicated selectivity for CDK12
Experimental: as §1, §2, §3, §4

Cyclin K [2] = settings: literature; cited from earlier work
[3] = Table 3, ratio >0.9 is an indicator of Cyclin K degradation
[4] = Table 1, ATP 0.3 μM, read-out: CDK12 IC50
[5] = Table 2, CDK12 kinase activity, read-out: Biochemical Potency IC50
[6] = Table 3, CDK12 kinase activity, read-out: Biochemical Potency IC50

Human CDK12 wt/CycK, sequence (Q9NYV4 whole entry): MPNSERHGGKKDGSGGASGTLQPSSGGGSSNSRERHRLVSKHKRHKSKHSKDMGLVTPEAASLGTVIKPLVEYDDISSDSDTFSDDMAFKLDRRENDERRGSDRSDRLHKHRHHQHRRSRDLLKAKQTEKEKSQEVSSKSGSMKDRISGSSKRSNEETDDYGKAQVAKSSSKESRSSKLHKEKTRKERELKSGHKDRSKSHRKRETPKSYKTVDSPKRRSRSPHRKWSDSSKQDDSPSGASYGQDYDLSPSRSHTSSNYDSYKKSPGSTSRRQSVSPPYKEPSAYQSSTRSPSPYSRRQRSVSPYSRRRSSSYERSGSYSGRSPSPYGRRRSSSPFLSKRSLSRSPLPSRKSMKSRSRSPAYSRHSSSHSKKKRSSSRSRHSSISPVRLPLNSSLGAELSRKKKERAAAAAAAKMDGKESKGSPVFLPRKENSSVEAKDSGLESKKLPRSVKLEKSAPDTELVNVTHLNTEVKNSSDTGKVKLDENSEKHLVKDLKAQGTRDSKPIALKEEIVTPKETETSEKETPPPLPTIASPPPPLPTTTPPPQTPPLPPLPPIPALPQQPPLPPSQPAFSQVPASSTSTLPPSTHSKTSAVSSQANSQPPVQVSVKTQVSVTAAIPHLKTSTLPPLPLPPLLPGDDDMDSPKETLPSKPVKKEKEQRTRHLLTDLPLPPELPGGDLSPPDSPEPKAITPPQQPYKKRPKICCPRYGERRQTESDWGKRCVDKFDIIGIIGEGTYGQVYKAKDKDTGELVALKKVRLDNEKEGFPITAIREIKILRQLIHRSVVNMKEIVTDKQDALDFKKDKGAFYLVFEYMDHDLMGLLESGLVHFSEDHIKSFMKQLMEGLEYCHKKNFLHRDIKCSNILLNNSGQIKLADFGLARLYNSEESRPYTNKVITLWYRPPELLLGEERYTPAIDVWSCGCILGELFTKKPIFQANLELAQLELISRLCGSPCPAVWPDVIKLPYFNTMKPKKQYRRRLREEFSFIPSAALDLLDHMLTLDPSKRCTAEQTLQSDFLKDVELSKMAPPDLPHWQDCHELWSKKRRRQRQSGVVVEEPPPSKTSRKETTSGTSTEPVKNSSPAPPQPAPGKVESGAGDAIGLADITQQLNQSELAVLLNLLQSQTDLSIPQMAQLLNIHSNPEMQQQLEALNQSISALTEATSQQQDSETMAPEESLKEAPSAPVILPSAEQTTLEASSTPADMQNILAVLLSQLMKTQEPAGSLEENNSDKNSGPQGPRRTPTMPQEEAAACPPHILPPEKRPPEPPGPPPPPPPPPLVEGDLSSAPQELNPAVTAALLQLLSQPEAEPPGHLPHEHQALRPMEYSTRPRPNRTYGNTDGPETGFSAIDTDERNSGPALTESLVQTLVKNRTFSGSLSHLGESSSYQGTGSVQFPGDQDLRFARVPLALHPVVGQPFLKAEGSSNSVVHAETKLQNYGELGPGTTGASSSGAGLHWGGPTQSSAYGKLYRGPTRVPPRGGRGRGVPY
Human CDK12 wt/CycK, sequence (O75909 whole entry partner): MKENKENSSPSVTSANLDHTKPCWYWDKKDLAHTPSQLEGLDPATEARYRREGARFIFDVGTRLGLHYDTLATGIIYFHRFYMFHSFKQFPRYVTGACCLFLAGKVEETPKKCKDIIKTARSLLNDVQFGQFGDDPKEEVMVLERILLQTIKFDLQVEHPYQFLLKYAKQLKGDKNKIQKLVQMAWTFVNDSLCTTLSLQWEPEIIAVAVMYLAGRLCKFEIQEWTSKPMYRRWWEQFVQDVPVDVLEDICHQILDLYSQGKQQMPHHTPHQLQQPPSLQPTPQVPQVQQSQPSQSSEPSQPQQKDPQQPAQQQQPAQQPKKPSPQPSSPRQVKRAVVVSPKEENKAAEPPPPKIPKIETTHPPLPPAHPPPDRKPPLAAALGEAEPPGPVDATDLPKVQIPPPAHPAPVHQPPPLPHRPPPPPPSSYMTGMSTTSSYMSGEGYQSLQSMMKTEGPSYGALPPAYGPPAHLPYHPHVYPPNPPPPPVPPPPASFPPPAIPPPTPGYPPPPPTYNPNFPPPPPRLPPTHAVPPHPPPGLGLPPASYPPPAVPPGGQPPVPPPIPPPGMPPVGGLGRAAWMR
Human CDK7/CycH/MAT1, sequence (P50613 whole entry): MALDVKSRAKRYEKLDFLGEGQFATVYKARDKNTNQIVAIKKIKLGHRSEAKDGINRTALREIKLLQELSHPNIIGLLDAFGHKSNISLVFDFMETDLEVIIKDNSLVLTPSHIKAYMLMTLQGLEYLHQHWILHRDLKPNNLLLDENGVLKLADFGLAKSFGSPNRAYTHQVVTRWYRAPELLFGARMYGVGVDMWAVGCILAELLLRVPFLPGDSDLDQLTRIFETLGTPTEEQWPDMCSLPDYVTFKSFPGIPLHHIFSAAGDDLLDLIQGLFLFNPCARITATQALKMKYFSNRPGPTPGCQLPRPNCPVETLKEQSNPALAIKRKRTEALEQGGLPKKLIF
Human CDK7/CycH/MAT1, sequence (P51946 whole entry partner): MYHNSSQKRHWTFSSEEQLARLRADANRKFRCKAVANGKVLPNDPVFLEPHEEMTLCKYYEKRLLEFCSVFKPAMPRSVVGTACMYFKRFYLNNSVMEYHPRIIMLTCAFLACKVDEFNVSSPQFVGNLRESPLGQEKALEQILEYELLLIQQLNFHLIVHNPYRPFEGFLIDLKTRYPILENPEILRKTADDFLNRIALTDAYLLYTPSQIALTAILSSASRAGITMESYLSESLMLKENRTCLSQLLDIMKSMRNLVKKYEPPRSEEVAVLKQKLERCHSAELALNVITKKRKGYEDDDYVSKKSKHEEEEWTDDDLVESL
Human CDK7/CycH/MAT1, sequence (P51948 whole entry partner): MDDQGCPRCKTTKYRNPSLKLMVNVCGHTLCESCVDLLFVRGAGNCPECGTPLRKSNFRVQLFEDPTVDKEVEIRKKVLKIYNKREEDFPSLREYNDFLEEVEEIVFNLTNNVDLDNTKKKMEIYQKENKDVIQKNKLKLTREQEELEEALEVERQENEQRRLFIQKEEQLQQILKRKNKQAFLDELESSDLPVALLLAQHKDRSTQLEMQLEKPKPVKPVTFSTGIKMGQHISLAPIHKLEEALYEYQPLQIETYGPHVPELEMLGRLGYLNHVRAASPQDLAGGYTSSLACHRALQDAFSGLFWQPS

SMILES | IC50 (Human CDK7/CycH/MAT1) [nM] | IC50 (A673 cells; A673, Table 2) [nM] | IC50 (A673 cells; A673, Table 3) [nM] | Ratio of Biochemical Potency: Cellular Potency (A673 cells; Table 2) | Ratio of Biochemical Potency: Cellular Potency (A673 cells; [3]) | Cyclin K Degrader Activity (Cyclin K [1]) | IC50 (Human CDK12 wt/CycK; [4]) [nM] | CDK7/CDK12 (Human CDK12 wt/CycK; Table 1) | IC50 (Human CDK12 wt/CycK; [5]) [nM] | IC50 (Human CDK12 wt/CycK; [6]) [nM] | Cyclin K degradation (in words) (Cyclin K [2])
CC(C)c1cnn2c(NCc3nc4cc(C5CC5)ccn4n3)cc(NC[C@H]3CCNC[C@@H]3O)nc12 [H-APPAMP-044, (3R,4R)-4-(((7-(((7-cyclopropyl-[1,2,4]triazolo[1,5-a]pyridin-2-yl)methyl)amino)-3-isopropylpyrazolo[1,5-a]pyrimidin-5-yl)amino)methyl)piperidin-3-ol] | 269 | 44 | 44 | 0.91 | 0.91 | + | 40 | 6.7 | 40 | 40 | 
Cc1cc(C)n2cc(CNc3cc(NC[C@H]4CCNC[C@@H]4O)nc4c(C(C)C)cnn34)nc2n1 [H-APPAMP-043, (3R,4R)-4-(((7-(((5,7-dimethylimidazo[1,2-a]pyrimidin-2-yl)methyl)amino)-3-isopropylpyrazolo[1.5-a]pyrimidin-5-yl)amino)methyl)piperidin-3-ol] | 484 | 340 | 340 | 0.06 | 0.06 | − | 21 | 23 | 21 | 21 | 
Cc1cccc2nc(CNc3cc(NC[C@H]4CCNC[C@@H]4O)nc4c(C5CC5)cnn34)cn12 [H-APPAMP-025, (3R,4R)-4-(((3-cyclopropyl-7-(((5-methylimidazo[1,2-a]pyridin-2-yl)methyl)amino)pyrazolo[1,5-a]pyrimidin-5-yl)amino)methyl)piperidin-3-ol] | 334 | 1.5 | 1.5 | 23 | 23 | +++ | 36 | 9.3 | 36 | 36 | 
Cc1cccn2cc(CNc3cc(NC[C@H]4CCNC[C@@H]4O)nc4c(C(C)C)cnn34)nc12 [H-APPAMP-004, (3R,4R)-4-(((3-isopropyl-7-(((8-methylimidazo[1,2-a]pyridin-2-yl)methyl)amino)pyrazolo[1,5-a]pyrimidin-5-yl)amino)methyl)piperidin-3-ol] | 305 | 8.9 | 12 | 6.2 | 4.2 | ++ | 51.7 | 5.90 | 55 | 51 | 
CC[C@H](CO)Nc1nc(NCc2ccc(-c3ccccn3)cc2)c2ncn(C(C)C)c2n1 [CR8] |  |  |  |  |  |  |  |  |  |  | cause Cyclin K degradation
CC(C)c1cnn2c(NCc3cn4cccc(C5CC5)c4n3)cc(NC[C@H]3CCNC[C@@H]3O)nc12 [H-APPAMP-013, (3R,4R)-4-(((7-(((8-cyclopropylimidazo[1,2-a]pyridin-2-yl)methyl)amino)-3-isopropylpyrazolo[1,5-a]pyrimidin-5-yl)amino)methyl)piperidin-3-ol] | 226 |  | 12.2 |  | 5.7 |  | 70 | 3.2 |  | 70 | 
CC(C)c1cnn2c(NCc3cn4cc(Cl)ccc4n3)cc(NC[C@H]3CCNC[C@@H]3O)nc12 [H-APPAMP-012, (3R,4R)-4-(((7-(((6-chloroimidazo[1,2-a]pyridin-2-yl)methyl)amino)-3-isopropylpyrazolo[1,5-a]pyrimidin-5-yl)amino)methyl)piperidin-3-ol] | 214 |  | 21.8 |  | 1.2 |  | 26 | 8.2 |  | 26 | 
